Data on 20 molecules can be found in ChEMBL document CHEMBL1201862, “PubChem BioAssay data set” (2004).

Each structure is given as a SMILES string. Active and inactive are the calls of the source.

Assay [1] in a line: THP-1 cell cytotoxicity, dose response, cytotoxicity control for non-replicating M. tuberculosis project (AID 489025). It counts as functional.
The nature of assay [2]: Vero E6 cell cytotoxicity, dose response, cytotoxicity control for non-replicating M. tuberculosis project, secondary assay (AID 492998). Type of assay: functional, VeroE6. As to conditions: Vero C1008.
Assay [3] in a line: cells. It counts as functional.
Assay [4] can be described thus: intracellular Trypanosoma cruzi inhibitors in host cells – cell-based, plate reader, cherry-pick samples, set 3, dose response (AID 651818).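 Further: compounds incubated with infected cells for about four days.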 Type of assay: functional.
Assay [5] has as its system SN12K1. In words: cells. Type of assay: functional. As to conditions: Homo sapiens.
Assay [6] has as its system P388. In words: cells. Type of assay: functional. The conditions noted are these: Mus musculus.
Assay [7] concerns P388/ADR. In words: cells. The conditions noted are these: Mus musculus. It counts as functional.
Assay [8] concerns the target T1, Microphthalmia-associated transcription factor (Homo sapiens, UniProt O75030).
T1 sequence (O75030 whole entry): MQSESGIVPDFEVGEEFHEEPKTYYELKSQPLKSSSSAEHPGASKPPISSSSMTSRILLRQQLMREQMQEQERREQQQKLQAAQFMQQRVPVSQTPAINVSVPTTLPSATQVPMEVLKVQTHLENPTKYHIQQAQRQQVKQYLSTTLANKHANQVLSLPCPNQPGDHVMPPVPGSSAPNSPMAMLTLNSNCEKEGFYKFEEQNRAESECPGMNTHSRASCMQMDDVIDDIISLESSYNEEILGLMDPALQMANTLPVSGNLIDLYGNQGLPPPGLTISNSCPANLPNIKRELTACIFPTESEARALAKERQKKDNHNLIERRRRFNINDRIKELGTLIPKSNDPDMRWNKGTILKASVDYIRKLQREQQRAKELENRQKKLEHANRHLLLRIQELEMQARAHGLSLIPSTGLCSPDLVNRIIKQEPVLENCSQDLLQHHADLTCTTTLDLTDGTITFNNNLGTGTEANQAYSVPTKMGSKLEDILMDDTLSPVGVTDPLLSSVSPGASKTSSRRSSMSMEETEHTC
Description: reducers of TRPM1 reporter luminescence, concentration series – cell-based, SK-MEL-5, cherry-picked, set 3, MITF inhibitor project, dose response (AID 493073).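 Further: SK-MEL-5 melanoma cells with luciferase driven by the MITF target TRPM1 promoter.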 It counts as functional.

Assay [9] deals with Paired box protein Pax-8 (Homo sapiens, UniProt Q06710). In words: PAX8 transcriptional activity inhibition in RMG-I – RMG-I cells, luciferase, cherry-pick, dose response (AID 687027).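 Further: luciferase reporter driven by Pax8 target thyroperoxidase promoter measured by SteadyGlo luminescence.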 It counts as functional, cell-based.
Sequence of Paired box protein Pax-8 (Q06710 whole entry): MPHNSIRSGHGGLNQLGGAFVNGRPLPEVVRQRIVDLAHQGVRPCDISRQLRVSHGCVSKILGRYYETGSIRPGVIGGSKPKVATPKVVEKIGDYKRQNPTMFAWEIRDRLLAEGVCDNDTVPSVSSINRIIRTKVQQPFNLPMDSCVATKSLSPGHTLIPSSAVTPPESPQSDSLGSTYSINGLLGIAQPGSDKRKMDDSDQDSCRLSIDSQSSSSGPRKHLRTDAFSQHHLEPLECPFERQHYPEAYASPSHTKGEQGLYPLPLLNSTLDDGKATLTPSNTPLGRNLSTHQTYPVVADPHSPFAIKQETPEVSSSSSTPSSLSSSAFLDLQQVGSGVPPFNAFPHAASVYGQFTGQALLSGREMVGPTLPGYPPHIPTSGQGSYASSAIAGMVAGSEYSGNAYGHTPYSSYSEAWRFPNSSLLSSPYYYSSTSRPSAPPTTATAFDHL
Assay [10] deals with Vero. Description: cells. Type of assay: functional, cell-based. As to conditions: Chlorocebus sabaeus.
Assay [11] has as its target T2, Streptokinase A (Streptococcus pyogenes serotype M1, UniProt P10520).
T2 sequence (P10520 whole entry): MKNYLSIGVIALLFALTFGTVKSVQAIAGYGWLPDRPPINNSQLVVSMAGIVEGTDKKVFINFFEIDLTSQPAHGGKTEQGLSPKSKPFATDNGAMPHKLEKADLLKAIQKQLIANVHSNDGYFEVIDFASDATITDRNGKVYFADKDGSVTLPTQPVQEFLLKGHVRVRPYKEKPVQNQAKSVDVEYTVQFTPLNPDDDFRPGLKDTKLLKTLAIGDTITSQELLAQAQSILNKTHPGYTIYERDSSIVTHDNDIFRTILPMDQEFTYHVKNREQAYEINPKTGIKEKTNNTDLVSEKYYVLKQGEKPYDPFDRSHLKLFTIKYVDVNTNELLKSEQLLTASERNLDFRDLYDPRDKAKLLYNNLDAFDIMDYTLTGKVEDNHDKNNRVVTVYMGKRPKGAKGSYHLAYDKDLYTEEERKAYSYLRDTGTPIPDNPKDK
Description: viability-normalized secreted streptokinase activity reduction – plasminogen activation absorbance, OD405, dose response (AID 1914).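 Further: secreted streptokinase activity via plasminogen activation per viability signal from cell pellet.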 It counts as functional, Streptococcus pyogenes M1 GAS.

Assay [12] relates to Streptococcus. Description: GAS UMAA2166 growth inhibition – luminescence, BacTiterGlo, counter-screen for streptokinase expression inhibitor project, dose response (AID 1915).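 Further: potency for reduction of bacterial viability or growth.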 It counts as functional, organism-based. Background: Counterscreens check selectivity or assay interference.
The subject of assay [13] is Streptococcus sp. 'group A'. In words: Streptococcus pyogenes SK(-)GAS viability under kanamycin – luminescence, BacTiterGlo, confirmation, counter-screen for streptokinase expression inhibitor project, dose response (AID 1900). It counts as functional, organism-based.
For assay [14], the target named is T3, Replicative DNA helicase DnaB (Mycobacterium tuberculosis, UniProt P9WMR3).
T3 sequence (P9WMR3 whole entry): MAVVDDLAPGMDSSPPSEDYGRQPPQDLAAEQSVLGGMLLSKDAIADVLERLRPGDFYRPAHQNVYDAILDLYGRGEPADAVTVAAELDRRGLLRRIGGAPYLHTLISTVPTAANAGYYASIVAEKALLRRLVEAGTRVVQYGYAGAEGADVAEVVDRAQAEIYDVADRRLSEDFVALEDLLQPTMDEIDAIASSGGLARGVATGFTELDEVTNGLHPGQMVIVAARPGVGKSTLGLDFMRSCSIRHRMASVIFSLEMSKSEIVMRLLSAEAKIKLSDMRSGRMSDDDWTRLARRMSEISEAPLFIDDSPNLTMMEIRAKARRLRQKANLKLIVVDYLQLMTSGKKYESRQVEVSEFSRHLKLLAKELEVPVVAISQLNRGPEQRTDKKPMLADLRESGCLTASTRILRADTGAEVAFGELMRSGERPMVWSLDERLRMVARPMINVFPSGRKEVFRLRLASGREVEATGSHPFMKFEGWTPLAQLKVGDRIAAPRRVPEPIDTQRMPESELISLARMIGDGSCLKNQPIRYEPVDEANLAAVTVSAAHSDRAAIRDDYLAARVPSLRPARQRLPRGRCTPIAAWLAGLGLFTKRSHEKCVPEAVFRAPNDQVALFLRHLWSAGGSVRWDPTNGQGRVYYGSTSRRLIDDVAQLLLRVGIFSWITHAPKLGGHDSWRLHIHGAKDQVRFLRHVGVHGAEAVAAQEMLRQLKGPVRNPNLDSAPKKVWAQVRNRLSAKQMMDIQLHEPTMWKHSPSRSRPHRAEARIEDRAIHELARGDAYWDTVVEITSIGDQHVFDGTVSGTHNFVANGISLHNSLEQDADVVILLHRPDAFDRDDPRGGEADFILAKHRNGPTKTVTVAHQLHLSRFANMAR
Description: DnaB intein splicing inhibitors, dose response, biochemical, cell-free fluorescence (AID 449749). Type of assay: functional.

Assay [15] deals with T4, Protein RecA (Mycobacterium tuberculosis, UniProt P9WHJ3).
T4 sequence (P9WHJ3 whole entry): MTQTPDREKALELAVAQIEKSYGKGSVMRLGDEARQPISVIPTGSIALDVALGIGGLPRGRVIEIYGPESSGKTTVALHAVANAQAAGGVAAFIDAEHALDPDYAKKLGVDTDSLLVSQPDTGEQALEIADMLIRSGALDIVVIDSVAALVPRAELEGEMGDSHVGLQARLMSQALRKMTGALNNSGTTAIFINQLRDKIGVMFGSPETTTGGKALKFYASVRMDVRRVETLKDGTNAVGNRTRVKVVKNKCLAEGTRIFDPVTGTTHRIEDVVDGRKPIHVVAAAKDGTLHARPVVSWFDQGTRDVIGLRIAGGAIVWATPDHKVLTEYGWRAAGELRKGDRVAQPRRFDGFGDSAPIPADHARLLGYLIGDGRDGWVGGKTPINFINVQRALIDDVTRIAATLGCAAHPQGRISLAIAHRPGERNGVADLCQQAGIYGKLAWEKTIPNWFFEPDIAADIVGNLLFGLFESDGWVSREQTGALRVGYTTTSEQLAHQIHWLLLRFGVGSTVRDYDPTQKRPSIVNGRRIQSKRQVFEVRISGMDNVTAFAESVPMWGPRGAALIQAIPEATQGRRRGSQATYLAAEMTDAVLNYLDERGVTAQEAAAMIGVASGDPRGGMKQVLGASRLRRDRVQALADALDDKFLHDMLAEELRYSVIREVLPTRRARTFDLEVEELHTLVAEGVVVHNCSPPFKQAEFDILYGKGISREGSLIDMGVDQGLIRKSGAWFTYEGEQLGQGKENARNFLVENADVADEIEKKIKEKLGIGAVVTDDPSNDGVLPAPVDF
Description: Fluorescence Cell-Free Homogeneous Dose Retest to Identify Inhibitors of RecA-Intein Splicing Activity. [Related pubchem assays (depositor defined):AID2097, AID2223, AID489010, AID492950]. It counts as functional.

Assay [16] is described as follows: microbe, parasite or virus in culture. Type of assay: functional. As to conditions: Mycobacterium tuberculosis.
Assay [17] is described as follows: luciferase reporter signal suppression in cells – H4 neuroglioma cells, luminescence, dose response (AID 1990). Type of assay: functional, cell-based. (In general: A reporter such as luciferase makes a cellular process visible.)
The nature of assay [18]: Luminescence Cell-Based Dose Response HTS to Identify Inhibitors of 5'UTR Stem-Loop Driven Prion Protein mRNA Translation in H4 Neuroglioblastoma Cells. [Related pubchem assays: 1827 (Project Summary), 1813 (Primary HTS)]. It counts as functional.
In assay [19] the test system is H9c2. Description: cells. Type of assay: functional, cell-based. The conditions noted are these: Rattus norvegicus, H9c2, Myocardium.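 Further: confirmatory concentration-response retest of ultra-high-throughput screening hits for modulation of myocardial damage; cell death induced by hydrogen peroxide oxidative stress; compound pretreatment for 60 min then peroxide exposure for 2 h; potency is for protecting the cells against peroxide damage rather than for killing them.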
Assay [20] can be described thus: alpha-synuclein stem-loop luciferase translation blockers – H4 neuroglioma cells, luminescence, confirmation (AID 1988). Type of assay: functional, cell-based.

The IC50 is the concentration that inhibits the measured activity by half. As a reminder, the AC50 is the midpoint of the concentration-response curve, whichever way the signal moves. A word on the GI50: it is the concentration giving 50% growth inhibition. In general, EC50 refers to the concentration at which the effect is half-maximal.

As to `Cc1ccc(C)c(-c2nnc(NC(=O)c3ccc([N+](=O)[O-])o3)o2)c1`, the CC50 was 11.7 µM (active) in assay [1] and 11.6 µM (active) in assay [2]. Also, the IC50 in [3] is < 0.1 µM (active).

For the molecule `C[C@@H]1CN([C@@H](C)CO)C(=O)c2cccc(NC(=O)c3nc4ccccc4s3)c2O[C@@H]1CN(C)Cc1ccc(C(=O)Nc2ccccc2N)cc1`, the AC50 in assay [4] was 2.88 µM (active).

With `COc1cc(/C=C/C(=O)O)ccc1C(=O)OCc1ccccc1`, the GI50 in [5], in [6] and in assay [7] was > 100 µM (inactive) each time.

Regarding `COc1ccc(CCn2c(=S)[nH]c3cc(C(=O)NCc4ccco4)ccc3c2=O)cc1OC`, the AC50 in assay [8] is 17.7 µM (active).

As for `COc1ccc(S(=O)(=O)Nc2ccc3c(c2)CC(=O)N([C@H](C)CO)C[C@@H](C)[C@H](CN(C)Cc2ccc(Cl)c(Cl)c2)O3)cc1`, the AC50 in assay [4] is 1.94 µM (active).

Consider `Cc1cccc(-c2nnc3sc(-c4ccccc4C)nn23)c1`, for which the CC50 in assay [1] is 39 µM (active); in [2], > 20 µM (active). The IC50 in assay [3] is 34.6 µM (active).

Consider `CN(C)CCNC(=O)c1cccc2cc3cc(O)ccc3nc12`, for which the concentration for 50% growth inhibition (GI50) was 0.339 µM (active) in [5], 0.0748 µM (active) in assay [6] and 0.288 µM (active) in [7].

For `C[C@@H]1CN([C@H](C)CO)C(=O)Cc2cc(NC(=O)Nc3ccc(F)cc3)ccc2O[C@@H]1CN(C)Cc1ccc(Cl)c(Cl)c1`, the AC50 in assay [9] is 18.4 µM (active); in assay [4], 4.89 µM (active).

As for `Cc1ccc(S(=O)(=O)Nc2ccc3c(c2)CC(=O)N([C@@H](C)CO)C[C@H](C)[C@@H](CN(C)Cc2ccc(C(=O)Nc4ccccc4N)cc2)O3)cc1`, in assay [4], the AC50 was 2.74 µM (active).

With `COCCN=C(S)NCc1ccc2[nH]c3c(c2c1)CCCC3`, the IC50 in assay [10] was 23.6 µM (active).

As to `O=C(NNC1=Nc2ccccc2SC1)c1ccc(F)cc1`, the CC50 in assay [1] is > 40 µM (active); in assay [2] it was > 20 µM (active). The EC50 in assay [11] was > 150 µM (not active); in assay [12], 15.6 µM (active); in [13], 3.72 µM (active). For the same molecule, in assay [3], the IC50 was 23.5 µM (active).

As to `Cc1ccc(NC(=O)CCl)cc1S(=O)(=O)N1CCCCCC1`, the figures for the AC50 in assay [14] and in assay [8] were 14.7 µM (active) and 7.55 µM (active), respectively. The EC50 in assay [15] is 3.67 µM (active). For the same molecule, in assay [16], the CC50 is 6.13 µM (active).

With `CNC(=O)OCc1nc(SC(C)C)n(C)c1COC(=O)NC`, the GI50 in assay [5] was > 100 µM (inactive); in [6], 46.9 µM (inactive); in [7], 83.6 µM (inactive).

`O=C(CC1=NCCN1)c1ccccc1`: the GI50 in assay [5] was > 750 µM (inactive); in assay [6], > 750 µM (inactive); in assay [7], 705 µM (inactive).

Regarding `C[C@@H]1CN([C@H](C)CO)C(=O)Cc2cc(NC(=O)Nc3cccc4ccccc34)ccc2O[C@H]1CN(C)Cc1ccc(C(F)(F)F)cc1`, the AC50 in [4] was 3.46 µM (active).

Regarding `CNC(=O)C(C)C1CCC2(C)C=CC(=O)C(C)=C2C1O` (stereo unspecified), the GI50 in assay [5], in assay [6] and in [7] was > 100 µM (inactive) throughout.

Take `C[C@H](CO)N1C[C@H](C)[C@@H](CN(C)Cc2ccc(Oc3ccccc3)cc2)Oc2c(NS(=O)(=O)c3ccc(Cl)cc3)cccc2C1=O`: the AC50 in [4] is 3.36 µM (active).

In the case of `COc1cc(OC)cc(C(=O)NNC(=O)c2ccccn2)c1`, the CC50 in [1] is 10.6 µM (active); in assay [2] it was 12.6 µM (active). Also, the EC50 was 11.6 µM (active) in [17], 11.2 µM (active) in assay [18] and > 120 µM (not active) in [20]. Moreover, the IC50 in assay [3] was 9.73 µM (active); in assay [19] it was > 79 µM (inactive).

With `CCc1ccc(-c2cc3c(=O)n(CC(=O)NCCCN4CCN(CC)CC4)nc(C)n3n2)cc1`, in [10], the IC50 was > 25 µM (active).

`COc1cc(C2c3cc4c(cc3[C@@H](Oc3ccc(F)cc3)C3COC(=O)[C@H]23)OCO4)cc(OC)c1O` (stereo partly specified): the GI50 in assay [5] was 0.31 µM (active); in assay [6], 0.327 µM (active); in assay [7], 0.354 µM (active).
